US20230312550A1, “N-(2-(4-CYANOTHIAZOLIDIN-3-YL)-2-OXOETHYL)-QUINOLINE-4-CARBOXAMIDES” (AstraZeneca AB, priority 2020, published 2023)

Assays:
[1] = target: Prolyl endopeptidase, Prolyl Oligopeptidase (hPREP) (Homo sapiens (Human), UniProt P48147); assay: hPrep inhibition assay; type: biochemical; details: hPREP 0.6 nM, Z-Gly-Pro-amino-methylcoumarin 50 μM; read-out: PREP IC50
Experimental: Compounds were tested in a biochemical inhibition assay using Prolyl endopeptidase, Prolyl Oligopeptidase (hPREP) enzyme at 0.6 nM FAC (R&D Systems, 4308-SE) and the substrate Z-Gly-Pro-amino-methylcoumarin (Bachem, I-1145) at 50 μM FAC. 384 Low volume black plates (Greiner #784076) were used. […] Plates were incubated for 15 min at rt in dark. 4 μL, 100 μM substrate solution (25 mM Tris HCl, 250 mM NaCl, 0.01% Triton X-100, 5 mM Glutathione, pH 7.5) was added to each well. Plates were centrifuged at 1000 rpm and incubated for 20 min at rt in dark. The plates were read on a PHERAstar® reader with excitation 340 nm and emission 460 nm. Data were analyzed in Genedata Screener®. IC50 values were determined by plotting % inhibition versus log compound concentration and using a one site dose response model.

[2] = target: hFAP (M39-A757) (Homo sapiens (Human), UniProt Q12884); assay: hFAP binding assay (surface plasmon resonance); details: SPR, 20° C.; for hFAP Binding assay k(off) / hFAP Binding assay k(on): single cycle kinetics
[3] = target: human Fibroblast activation protein alpha (hFAP) (Homo sapiens (Human), UniProt Q12884); assay: hFAP inhibition assay (tight binders); type: biochemical; details: Ala-Pro-AMC 20 μM, n = 1 or geometric mean n = 2-6; also: hFAP 2.4 pM
Experimental: The plates were read on a PHERAstar® reader with excitation 340 nm and emission 460 nm. Data were analyzed in Genedata Screener®. IC50 values were determined by plotting % inhibition versus log compound concentration and using a one site dose response model.

Sequence of hFAP (M39-A757) (Q12884 39-757): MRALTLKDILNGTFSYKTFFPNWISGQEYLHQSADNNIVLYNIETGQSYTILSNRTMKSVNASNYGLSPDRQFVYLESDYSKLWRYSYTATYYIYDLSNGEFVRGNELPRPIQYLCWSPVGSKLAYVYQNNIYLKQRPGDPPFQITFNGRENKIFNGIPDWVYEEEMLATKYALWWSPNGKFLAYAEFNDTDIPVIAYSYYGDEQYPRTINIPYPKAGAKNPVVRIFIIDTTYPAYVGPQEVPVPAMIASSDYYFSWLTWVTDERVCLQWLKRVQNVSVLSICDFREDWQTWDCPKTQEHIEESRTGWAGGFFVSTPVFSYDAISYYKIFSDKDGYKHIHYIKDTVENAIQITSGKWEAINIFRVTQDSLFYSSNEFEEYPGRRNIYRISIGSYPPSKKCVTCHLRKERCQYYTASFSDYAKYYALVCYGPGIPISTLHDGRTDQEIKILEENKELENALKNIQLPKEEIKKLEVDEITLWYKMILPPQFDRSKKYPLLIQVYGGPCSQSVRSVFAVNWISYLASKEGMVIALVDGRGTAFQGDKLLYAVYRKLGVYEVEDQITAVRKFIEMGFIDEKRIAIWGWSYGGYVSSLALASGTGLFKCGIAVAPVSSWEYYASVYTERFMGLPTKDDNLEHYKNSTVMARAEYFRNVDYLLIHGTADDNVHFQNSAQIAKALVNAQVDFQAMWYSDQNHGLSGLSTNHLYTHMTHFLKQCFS
Sequence of Prolyl endopeptidase, Prolyl Oligopeptidase (hPREP) (P48147 whole entry): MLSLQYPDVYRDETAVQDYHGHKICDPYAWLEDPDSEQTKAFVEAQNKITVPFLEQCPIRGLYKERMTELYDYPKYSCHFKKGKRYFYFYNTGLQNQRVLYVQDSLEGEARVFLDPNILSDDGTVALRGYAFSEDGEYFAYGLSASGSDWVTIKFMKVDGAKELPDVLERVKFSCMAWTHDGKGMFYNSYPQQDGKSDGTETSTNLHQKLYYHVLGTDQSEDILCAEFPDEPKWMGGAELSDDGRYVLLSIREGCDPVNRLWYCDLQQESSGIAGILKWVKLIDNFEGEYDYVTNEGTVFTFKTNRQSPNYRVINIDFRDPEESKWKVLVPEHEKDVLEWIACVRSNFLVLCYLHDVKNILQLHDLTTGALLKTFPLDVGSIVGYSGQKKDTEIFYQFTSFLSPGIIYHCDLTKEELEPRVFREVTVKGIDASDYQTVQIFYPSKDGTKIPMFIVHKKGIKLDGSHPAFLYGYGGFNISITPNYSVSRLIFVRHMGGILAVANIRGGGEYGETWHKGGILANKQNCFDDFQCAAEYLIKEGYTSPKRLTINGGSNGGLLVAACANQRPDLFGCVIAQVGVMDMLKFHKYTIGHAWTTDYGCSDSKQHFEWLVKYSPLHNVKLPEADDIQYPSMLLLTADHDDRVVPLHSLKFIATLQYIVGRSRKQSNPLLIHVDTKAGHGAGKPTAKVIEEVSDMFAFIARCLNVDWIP
Sequence of human Fibroblast activation protein alpha (hFAP) (Q12884 38-760): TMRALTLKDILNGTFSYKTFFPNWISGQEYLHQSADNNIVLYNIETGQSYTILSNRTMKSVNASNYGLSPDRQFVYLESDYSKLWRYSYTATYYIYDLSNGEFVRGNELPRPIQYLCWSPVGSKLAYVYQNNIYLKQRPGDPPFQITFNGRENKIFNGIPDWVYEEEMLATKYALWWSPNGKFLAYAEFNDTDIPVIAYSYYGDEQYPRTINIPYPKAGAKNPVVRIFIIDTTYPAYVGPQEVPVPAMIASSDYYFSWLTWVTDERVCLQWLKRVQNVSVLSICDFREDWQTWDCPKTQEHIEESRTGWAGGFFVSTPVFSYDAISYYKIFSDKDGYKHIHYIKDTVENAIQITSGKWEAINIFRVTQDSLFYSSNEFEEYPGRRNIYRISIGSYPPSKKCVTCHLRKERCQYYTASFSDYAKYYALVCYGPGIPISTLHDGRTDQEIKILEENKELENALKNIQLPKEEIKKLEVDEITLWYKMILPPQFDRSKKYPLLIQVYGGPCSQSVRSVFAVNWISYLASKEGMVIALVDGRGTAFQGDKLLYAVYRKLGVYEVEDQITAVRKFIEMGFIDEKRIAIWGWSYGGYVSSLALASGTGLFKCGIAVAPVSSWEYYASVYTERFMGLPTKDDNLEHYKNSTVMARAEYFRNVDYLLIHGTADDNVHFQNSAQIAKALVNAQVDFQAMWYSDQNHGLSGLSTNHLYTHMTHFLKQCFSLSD

Row | Compound | IC50 [1] | hFAP Binding assay k(off) [2] | hFAP Binding assay k(on) [2] | IC50 [3] | Kd ([2]; n = 1 or geometric mean n = 2-4)
1 | N#C[C@@H]1CSCN1C(=O)CNC(=O)c1ccnc2ccc(N3CCCC3=O)cc12 [Example 11, (R)—N-(2-(4-Cyanothiazolidin-3-yl)-2-oxoethyl)-6-(2-oxopyrrolidin-1-yl)-quinoline-4-carboxamide] | 140 nM |  |  |  | 
2 | CCC1(F)CN(c2ccc3nccc(C(=O)NCC(=O)N4CSC[C@H]4C#N)c3c2)C1 [Example 138, (R)—N-(2-(4-Cyanothiazolidin-3-yl)-2-oxoethyl)-6-(3-ethyl-3-fluoro-azetidin-1-yl)quinoline-4-carboxamide] | 470 nM | 0.000075 s⁻¹ | 2500000 M⁻¹ s⁻¹ |  | 
3 | CC(=O)NCC1(C)CN(c2ccc3nccc(C(=O)NCC(=O)N4CSC[C@H]4C#N)c3c2)C1 [Example 181, (R)-6-(3-(Acetamidomethyl)-3-methylazetidin-1-yl)-N-(2-(4-cyano-thiazolidin-3-yl)-2-oxoethyl)quinoline-4-carboxamide] | 1600 nM | 0.000027 s⁻¹ | 180000 M⁻¹ s⁻¹ |  | 
4 | N#C[C@@H]1CSCN1C(=O)CNC(=O)c1ccnc2ccc(N3CC[C@@H](CO)C3)cc12 [Example 220, N-(2-((R)-4-Cyanothiazolidin-3-yl)-2-oxoethyl)-6-((R)-3-(hydroxymethyl)-pyrrolidin-1-yl)quinoline-4-carboxamide] | 390 nM | 0.000050 s⁻¹ | 1600000 M⁻¹ s⁻¹ |  | 
5 | N#C[C@@H]1CSCN1C(=O)CNC(=O)c1ccnc2ccc(N3CCCOCC3)cc12 [Example 91, (R)—N-(2-(4-Cyanothiazolidin-3-yl)-2-oxoethyl)-6-(1,4-oxazepan-4-yl)-quinoline-4-carboxamide] | 260 nM | 0.00021 s⁻¹ | 3200000 M⁻¹ s⁻¹ |  | 
6 | COC[C@H]1COCCN1c1ccc2nccc(C(=O)NCC(=O)N3CSC[C@H]3C#N)c2c1 [Example 89, N-(2-((R)-4-Cyanothiazolidin-3-yl)-2-oxoethyl)-6-((S)-3-(methoxymethyl)-morpholino)quinoline-4-carboxamide] | 1300 nM | 0.00015 s⁻¹ | 3600000 M⁻¹ s⁻¹ |  | 
7 | Cn1cc(-c2ccc3nccc(C(=O)NCC(=O)N4CSC[C@H]4C#N)c3c2)cn1 [Example 129, (R)—N-(2-(4-Cyanothiazolidin-3-yl)-2-oxoethyl)-6-(1-methyl-1H-pyrazol-4-yl)quinoline-4-carboxamide] | 330 nM | 0.00012 s⁻¹ | 1400000 M⁻¹ s⁻¹ |  | 
8 | Cc1ccc2c(C(=O)NCC(=O)N3CSC[C@H]3C#N)ccnc2c1 [B, (R)—N-(2-(4-cyanothiazolidin-3-yl)-2-oxoethyl)-7-methylquinoline-4-carboxamide, reference compound] | 5.2 nM |  |  |  | 
9 | C[C@@H]1[C@@H](C)OCCN1c1ccc2nccc(C(=O)NCC(=O)N3CSC[C@H]3C#N)c2c1 [Example 83, N-(2-((R)-4-Cyanothiazolidin-3-yl)-2-oxoethyl)-6-((2R,3R)-2,3-dimethyl-morpholino)quinoline-4-carboxamide] | 640 nM | 0.000064 s⁻¹ | 1700000 M⁻¹ s⁻¹ |  | 
10 | N#C[C@@H]1CSCN1C(=O)CNC(=O)c1ccnc2ccc(N3CCC(F)(F)C3)cc12 [Example 47, (R)—N-(2-(4-Cyanothiazolidin-3-yl)-2-oxoethyl)-6-(3,3-difluoropyrrolidin-1-yl)quinoline-4-carboxamide] | 270 nM | 0.00016 s⁻¹ | 5600000 M⁻¹ s⁻¹ |  | 
11 | C[C@H]1CN(c2ccc3nccc(C(=O)NCC(=O)N4CSC[C@H]4C#N)c3c2)C[C@H](C)O1 [Example 78, N-(2-((R)-4-Cyanothiazolidin-3-yl)-2-oxoethyl)-6-((2S,6S)-2,6-dimethyl-morpholino)quinoline-4-carboxamide] | 890 nM | 0.00010 s⁻¹ | 880000 M⁻¹ s⁻¹ |  | 
12 | C[C@H]1COCCN1c1ccc2nccc(C(=O)NCC(=O)N3CSC[C@H]3C#N)c2c1 [Example 102, N-(2-((R)-4-Cyanothiazolidin-3-yl)-2-oxoethyl)-6-((S)-3-methyl-morpholino)quinoline-4-carboxamide] | 680 nM | 0.000080 s⁻¹ | 2000000 M⁻¹ s⁻¹ |  | 
13 | CC1(C)CN(c2ccc3nccc(C(=O)NCC(=O)N4CSC[C@H]4C#N)c3c2)C1 [Example 22, (R)—N-(2-(4-Cyanothiazolidin-3-yl)-2-oxoethyl)-6-(3,3-dimethylazetidin-1-yl)quinoline-4-carboxamide] | 470 nM | 0.000047 s⁻¹ | 940000 M⁻¹ s⁻¹ |  | 
14 | C[C@H]1OCCN(c2ccc3nccc(C(=O)NCC(=O)N4CSC[C@H]4C#N)c3c2)[C@H]1C [Example 81, N-(2-((R)-4-Cyanothiazolidin-3-yl)-2-oxoethyl)-6-((2R,3S)-2,3-dimethyl-morpholino)quinoline-4-carboxamide] | 1700 nM | 0.000063 s⁻¹ | 1400000 M⁻¹ s⁻¹ |  | 
15 | Cc1cc(C(=O)NCC(=O)N2CSC[C@H]2C#N)c2cc(N3CCOCC3)ccc2n1 [Example 109, (R)—N-(2-(4-Cyanothiazolidin-3-yl)-2-oxoethyl)-2-methyl-6-morpholino-quinoline-4-carboxamide] |  | 0.0099 s⁻¹ | 1200000 M⁻¹ s⁻¹ |  | 
16 | CCOC1(C)CN(c2ccc3nccc(C(=O)NCC(=O)N4CSC[C@H]4C#N)c3c2)C1 [Example 152, (R)—N-(2-(4-Cyanothiazolidin-3-yl)-2-oxoethyl)-6-(3-ethoxy-3-methyl-azetidin-1-yl)quinoline-4-carboxamide] | 690 nM | 0.000014 s⁻¹ | 1000000 M⁻¹ s⁻¹ |  | 
17 | N#C[C@@H]1CSCN1C(=O)CNC(=O)c1ccnc2ccc(N3CC[C@H](CO)C3)cc12 [Example 221, N-(2-((R)-4-Cyanothiazolidin-3-yl)-2-oxoethyl)-6-((S)-3-(hydroxymethyl)-pyrrolidin-1-yl)quinoline-4-carboxamide] | 410 nM | 0.000046 s⁻¹ | 8500000 M⁻¹ s⁻¹ |  | 
18 | C[C@]1(O)CCN(c2ccc3nccc(C(=O)NCC(=O)N4CSC[C@H]4C#N)c3c2)C1 [Example 168, N-(2-((R)-4-Cyanothiazolidin-3-yl)-2-oxoethyl)-6-((S)-3-hydroxy-3-methylpyrrolidin-1-yl)quinoline-4-carboxamide] | 630 nM | 0.000048 s⁻¹ | 1600000 M⁻¹ s⁻¹ | 0.16 nM | 0.032 nM
19 | C[C@@H]1CN(c2ccc3nccc(C(=O)NCC(=O)N4CSC[C@H]4C#N)c3c2)[C@H](C)CO1 [Example 87, N-(2-((R)-4-Cyanothiazolidin-3-yl)-2-oxoethyl)-6-((2R,5R)-2,5-dimethyl-morpholino)quinoline-4-carboxamide] | 760 nM | 0.00011 s⁻¹ | 2800000 M⁻¹ s⁻¹ |  | 
20 | N#C[C@@H]1CSCN1C(=O)CNC(=O)c1ccnc2ccc(N3CC4(CCO4)C3)cc12 [Example 153, (R)—N-(2-(4-Cyanothiazolidin-3-yl)-2-oxoethyl)-6-(1-oxa-6-azaspiro[3.3]heptan-6-yl)quinoline-4-carboxamide] | 540 nM | 0.000085 s⁻¹ | 5300000 M⁻¹ s⁻¹ |  | 
21 | CC1(C)COCCN1c1ccc2nccc(C(=O)NCC(=O)N3CSC[C@H]3C#N)c2c1 [Example 107, (R)—N-(2-(4-Cyanothiazolidin-3-yl)-2-oxoethyl)-6-(3,3-dimethyl-morpholino)quinoline-4-carboxamide] | 1100 nM | 0.00016 s⁻¹ | 1900000 M⁻¹ s⁻¹ |  | 
22 | C[C@@H]1COCCN1c1ccc2nccc(C(=O)NCC(=O)N3CSC[C@H]3C#N)c2c1 [Example 108, N-(2-((R)-4-Cyanothiazolidin-3-yl)-2-oxoethyl)-6-((R)-3-methyl-morpholino)quinoline-4-carboxamide] | 1000 nM | 0.000050 s⁻¹ | 1400000 M⁻¹ s⁻¹ |  | 
